Measured values as given in ChEMBL document CHEMBL5465560, “Selectivity Literature for EUbOPEN Chemogenomic Library” (2024).
Each block holds one compound with its values, some of them ahead of it.

How the values were obtained:
[1] = target: 5-hydroxytryptamine receptor 3A (Homo sapiens, UniProt P46098); experiment: Selectivity interaction (Serotonin 5HT3 receptor assay, human recombinant ) EUB0000877a HTR3A
[2] = target: Tyrosine-protein kinase JAK1 (Homo sapiens, UniProt P23458); experiment: Selectivity interaction (Kinase panel (Z-LYTE Assay)) EUB0001632a JAK1; conditions: at 10 µM
Chain of Tyrosine-protein kinase JAK1 (P23458 whole entry, the tested form may be a part): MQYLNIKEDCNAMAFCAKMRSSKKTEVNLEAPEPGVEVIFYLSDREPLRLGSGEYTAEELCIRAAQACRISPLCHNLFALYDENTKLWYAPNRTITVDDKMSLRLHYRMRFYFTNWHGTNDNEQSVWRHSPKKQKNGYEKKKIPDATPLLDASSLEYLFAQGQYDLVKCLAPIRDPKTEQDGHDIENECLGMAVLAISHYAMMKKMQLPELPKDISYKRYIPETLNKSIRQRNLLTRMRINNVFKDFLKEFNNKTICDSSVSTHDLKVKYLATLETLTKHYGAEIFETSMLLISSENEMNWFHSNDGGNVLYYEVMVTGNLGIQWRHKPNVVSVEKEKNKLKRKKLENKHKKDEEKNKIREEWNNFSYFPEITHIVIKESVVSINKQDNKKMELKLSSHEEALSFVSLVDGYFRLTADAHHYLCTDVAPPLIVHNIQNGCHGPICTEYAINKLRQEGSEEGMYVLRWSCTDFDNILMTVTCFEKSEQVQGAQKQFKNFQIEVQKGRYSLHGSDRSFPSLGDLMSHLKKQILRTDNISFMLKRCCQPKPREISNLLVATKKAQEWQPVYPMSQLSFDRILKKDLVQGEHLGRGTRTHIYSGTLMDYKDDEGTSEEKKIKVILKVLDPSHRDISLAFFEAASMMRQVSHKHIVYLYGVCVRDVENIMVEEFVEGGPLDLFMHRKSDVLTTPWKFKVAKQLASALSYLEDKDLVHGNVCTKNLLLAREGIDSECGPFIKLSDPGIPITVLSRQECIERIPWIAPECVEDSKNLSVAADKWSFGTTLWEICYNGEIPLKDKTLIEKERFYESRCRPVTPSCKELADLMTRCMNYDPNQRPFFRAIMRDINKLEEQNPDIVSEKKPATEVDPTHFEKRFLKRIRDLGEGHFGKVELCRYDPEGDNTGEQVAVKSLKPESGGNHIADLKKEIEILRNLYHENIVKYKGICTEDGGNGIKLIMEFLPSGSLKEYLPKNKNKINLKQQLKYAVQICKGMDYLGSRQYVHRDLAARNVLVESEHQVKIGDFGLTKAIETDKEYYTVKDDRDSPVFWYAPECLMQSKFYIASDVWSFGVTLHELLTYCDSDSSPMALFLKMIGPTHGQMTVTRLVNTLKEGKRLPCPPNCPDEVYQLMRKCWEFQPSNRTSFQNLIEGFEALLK

[3] = target: T1, Phosphatidylinositol 3-kinase C2 domain-containing subunit gamma (Homo sapiens) (UniProt O75747); experiment: Selectivity interaction (ProQinase) EUB0000171b PIK3C2G
T1 sequence (whole entry): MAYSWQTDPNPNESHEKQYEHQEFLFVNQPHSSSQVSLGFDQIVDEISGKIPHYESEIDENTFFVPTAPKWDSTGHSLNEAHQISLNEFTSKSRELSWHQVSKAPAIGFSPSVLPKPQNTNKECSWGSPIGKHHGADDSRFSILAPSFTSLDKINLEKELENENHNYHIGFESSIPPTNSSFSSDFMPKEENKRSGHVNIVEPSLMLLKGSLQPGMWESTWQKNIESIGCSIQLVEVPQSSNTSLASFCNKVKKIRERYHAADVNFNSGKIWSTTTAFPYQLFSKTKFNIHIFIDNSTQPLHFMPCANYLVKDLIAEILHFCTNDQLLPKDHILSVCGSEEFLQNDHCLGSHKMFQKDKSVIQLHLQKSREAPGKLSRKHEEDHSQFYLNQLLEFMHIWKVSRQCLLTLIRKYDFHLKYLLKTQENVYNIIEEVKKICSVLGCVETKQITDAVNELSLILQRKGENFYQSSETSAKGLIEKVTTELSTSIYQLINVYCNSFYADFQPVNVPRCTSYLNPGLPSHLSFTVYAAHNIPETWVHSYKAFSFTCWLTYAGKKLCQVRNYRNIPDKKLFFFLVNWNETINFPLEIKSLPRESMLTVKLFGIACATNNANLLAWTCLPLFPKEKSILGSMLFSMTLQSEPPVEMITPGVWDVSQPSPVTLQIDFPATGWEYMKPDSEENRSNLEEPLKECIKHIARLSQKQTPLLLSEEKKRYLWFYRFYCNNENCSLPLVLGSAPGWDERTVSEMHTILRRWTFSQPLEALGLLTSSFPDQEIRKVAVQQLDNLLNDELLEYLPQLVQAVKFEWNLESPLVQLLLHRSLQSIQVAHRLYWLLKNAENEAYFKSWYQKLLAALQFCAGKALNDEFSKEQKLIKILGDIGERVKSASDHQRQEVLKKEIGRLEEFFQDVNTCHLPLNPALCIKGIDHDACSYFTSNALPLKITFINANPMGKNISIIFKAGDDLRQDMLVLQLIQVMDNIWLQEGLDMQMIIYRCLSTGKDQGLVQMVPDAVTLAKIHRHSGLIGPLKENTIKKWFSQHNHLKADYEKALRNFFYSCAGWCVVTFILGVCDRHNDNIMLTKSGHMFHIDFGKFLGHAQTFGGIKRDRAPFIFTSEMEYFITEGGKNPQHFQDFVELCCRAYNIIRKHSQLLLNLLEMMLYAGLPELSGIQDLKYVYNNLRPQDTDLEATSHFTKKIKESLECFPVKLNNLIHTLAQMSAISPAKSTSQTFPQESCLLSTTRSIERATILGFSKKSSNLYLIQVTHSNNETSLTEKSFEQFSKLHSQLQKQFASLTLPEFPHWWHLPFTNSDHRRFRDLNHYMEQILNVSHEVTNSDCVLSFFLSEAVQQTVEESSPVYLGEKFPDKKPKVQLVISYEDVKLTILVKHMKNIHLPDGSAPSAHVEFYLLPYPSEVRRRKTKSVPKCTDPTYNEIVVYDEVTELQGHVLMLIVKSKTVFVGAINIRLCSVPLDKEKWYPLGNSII

[4] = target: T2, Interleukin-1 receptor-associated kinase 3 (Homo sapiens) (UniProt Q9Y616); experiment: Selectivity interaction (KinomeScan (DiscoverX)) EUB0000045b IRAK3
T2 sequence (whole entry): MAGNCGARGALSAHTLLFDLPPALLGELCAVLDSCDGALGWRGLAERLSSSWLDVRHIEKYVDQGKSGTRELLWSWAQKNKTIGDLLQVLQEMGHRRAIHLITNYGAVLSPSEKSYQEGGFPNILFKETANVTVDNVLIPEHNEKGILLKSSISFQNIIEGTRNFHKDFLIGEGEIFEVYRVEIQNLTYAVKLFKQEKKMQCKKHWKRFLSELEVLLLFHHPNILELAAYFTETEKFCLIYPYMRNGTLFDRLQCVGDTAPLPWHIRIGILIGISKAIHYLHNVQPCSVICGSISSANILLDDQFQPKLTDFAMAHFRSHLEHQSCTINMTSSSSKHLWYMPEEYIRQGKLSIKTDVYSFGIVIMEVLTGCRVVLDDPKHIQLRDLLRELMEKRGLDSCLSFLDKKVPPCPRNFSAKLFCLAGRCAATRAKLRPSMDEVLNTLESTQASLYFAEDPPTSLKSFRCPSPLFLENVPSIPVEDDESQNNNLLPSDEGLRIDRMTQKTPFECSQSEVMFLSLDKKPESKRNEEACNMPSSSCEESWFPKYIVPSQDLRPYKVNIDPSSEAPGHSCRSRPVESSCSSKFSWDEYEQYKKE

Mu-type opioid receptor = Mu-type opioid receptor (Homo sapiens, UniProt P35372); experiment: Selectivity interaction (GPCR panel (PDSP screen)) EUB0000311b OPRM1; conditions: at 10 µM
Chain of Mu-type opioid receptor (P35372 whole entry): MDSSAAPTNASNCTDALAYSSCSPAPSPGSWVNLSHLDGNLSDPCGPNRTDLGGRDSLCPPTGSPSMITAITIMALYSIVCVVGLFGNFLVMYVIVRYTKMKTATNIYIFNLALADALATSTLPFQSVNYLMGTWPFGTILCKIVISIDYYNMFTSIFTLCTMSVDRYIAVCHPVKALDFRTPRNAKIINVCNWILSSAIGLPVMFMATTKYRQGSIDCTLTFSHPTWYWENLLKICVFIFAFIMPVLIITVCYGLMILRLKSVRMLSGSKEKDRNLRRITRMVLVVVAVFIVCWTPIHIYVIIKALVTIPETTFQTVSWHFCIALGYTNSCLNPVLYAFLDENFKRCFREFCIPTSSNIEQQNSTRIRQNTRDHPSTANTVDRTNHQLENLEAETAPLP

[5] = target: Calcium/calmodulin-dependent protein kinase type II subunit delta (Homo sapiens) (UniProt Q13557); experiment: Selectivity interaction (KinomeScan (DiscoverX)) EUB0001619a CAMK2D; conditions: at 1 µM
Chain of Calcium/calmodulin-dependent protein kinase type II subunit delta (Homo sapiens) (Q13557 whole entry): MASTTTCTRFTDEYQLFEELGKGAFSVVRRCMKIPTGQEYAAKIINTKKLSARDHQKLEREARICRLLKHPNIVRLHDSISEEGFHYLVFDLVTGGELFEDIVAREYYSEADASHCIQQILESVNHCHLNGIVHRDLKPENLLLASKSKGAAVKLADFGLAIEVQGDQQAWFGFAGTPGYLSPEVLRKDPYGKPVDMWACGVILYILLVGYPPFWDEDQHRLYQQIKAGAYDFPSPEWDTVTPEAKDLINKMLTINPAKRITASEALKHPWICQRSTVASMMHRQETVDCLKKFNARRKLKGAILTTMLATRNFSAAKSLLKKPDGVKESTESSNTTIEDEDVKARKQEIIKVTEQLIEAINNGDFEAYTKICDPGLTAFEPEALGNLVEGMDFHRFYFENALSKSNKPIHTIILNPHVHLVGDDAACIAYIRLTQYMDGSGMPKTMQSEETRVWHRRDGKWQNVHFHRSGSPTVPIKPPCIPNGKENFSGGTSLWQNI

Chain of 5-hydroxytryptamine receptor 3A (P46098 whole entry): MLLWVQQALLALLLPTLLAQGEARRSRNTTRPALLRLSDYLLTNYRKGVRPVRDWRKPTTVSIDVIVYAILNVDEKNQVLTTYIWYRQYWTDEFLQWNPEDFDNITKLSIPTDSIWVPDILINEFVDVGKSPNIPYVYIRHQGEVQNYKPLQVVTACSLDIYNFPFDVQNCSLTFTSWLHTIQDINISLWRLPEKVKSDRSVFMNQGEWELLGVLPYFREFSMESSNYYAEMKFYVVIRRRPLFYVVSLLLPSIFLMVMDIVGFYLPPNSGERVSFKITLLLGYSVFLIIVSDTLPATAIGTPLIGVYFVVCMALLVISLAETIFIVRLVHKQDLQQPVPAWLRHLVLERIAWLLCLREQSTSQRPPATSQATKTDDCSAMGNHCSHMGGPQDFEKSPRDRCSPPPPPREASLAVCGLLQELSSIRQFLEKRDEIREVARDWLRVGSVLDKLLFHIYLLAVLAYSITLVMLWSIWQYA

Structure (SMILES): CCC(=O)N1CC[C@H](Nc2ncnc3c2CN(c2cnc(OC)c(C(F)(F)F)c2)CC3)C1 [LENIOLISIB]
- IC50 [1]: > 30 µM

Structure (SMILES): C=CC(=O)Nc1cccc(C(=O)Nc2ccc(Nc3cc(-c4[nH]c(SC)nc4C)ccn3)cc2)c1
- % of control ([3]; at 1 µM): 129%
- % of control ([3]; at 5 µM): 108%

Structure (SMILES): C=CC(=O)Nc1cc(-n2c(=O)ccc3cnc4ccc(-c5ccc(NS(C)(=O)=O)cc5)cc4c32)ccc1C
- % of control ([4]; at 1 µM): 73%
- % of control ([4]; at 10 µM): 34%

Structure (SMILES): N#Cc1cccc(-c2c[nH]c3ncnc(N4CCOCC4)c23)c1
- % of control [5]: 80%

Other lines, results leading:

- % of control [2]: -3.66%
Structure (SMILES): Cn1cc(-n2cnc3c(NCc4nc5cc(Cl)c(Cl)cc5[nH]4)nc(N4CCOCC4)nc32)cn1

- % of inhibition (Mu-type opioid receptor): 30.5%
Structure (SMILES): CCc1ccccc1C(=O)Nc1n[nH]c2c(C)c(F)c(C3C(C#N)=C(C)N(C)C(C)=C3C#N)cc12 [BAY-3827]
